Measurements: patent US20100160442A1, “FORMULATIONS FOR CANCER TREATMENT” (priority 2006, published 2010)
In brackets after ≈: the same amount, converted by molar mass. Several values for one entry are separate records, joined by “and”; a condition that tells them apart may be missing. Equal entries are not always repeated.

Assay: Saturated solubility of BA in self emulsifying lipid (SELF) samples, UV 320 nm
Type: physicochemical
Description: Saturated Solubility Test for Liquid SELF Samples: 2 ml of each liquid SELF was measured into 8 ml screw cap glass bottle using a Finnpipette. Aliquots of 50 mg of the API were then added until the mixture appeared to be saturated. The mixtures were sonicated for 30 minutes, and then observed to see if saturation had been maintained. Aliquots of 25 mg of the API were further added to non-saturated samples while stirring; these were sonicated for a further 30 minutes. This process was repeated until saturation was attained and maintained after sonication.
The liquid samples were then placed in the Variomatic water bath at 25° C. and left to stir for two nights. Each of the SELF samples was purged with nitrogen gas after use to minimize oxidation.
The saturated liquid samples were centrifuged at a speed of 4000 rpm for 10 minutes at 25° C.
Saturated Solubility Test for Semi-Solid SELF Samples: Prior to dispensing, semi-solid lipids were melted in a dry oven at 60° C. The semi-solids were dispensed into screw cap bottles; aliquots of the API were added to attain and maintain saturation. The saturated semi-solids were left stirring at 60° C.
The following day the stirrer was switched off but heating was maintained at 60° C. for 1 hour. This was to allow the dispersed solid particles to sediment. 0.1 ml was taken from the top clear layer of each of the saturated semi-solid samples and diluted with acetonitrile.
UV Analysis: The saturated samples and the lipid vehicles were diluted with acetonitrile at the same ratio. The samples were diluted with acetonitrile to obtain an absorbance between 0.1 to 1. The absorbance of the diluted lipid vehicles were used as the baseline for the absorbance readings of the active sample. The diluted samples were scanned at a fixed wavelength of 320 nm. The concentration of the API was calculated using the E^11 value, derived from the API concentration in acetonitrile.
Saturated Solubility: Saturated solubility was carried out on the six SELF samples (Gattefosse) that were miscible with acetonitrile. These samples were stirred over two nights.
Saturated solubility of freshly prepared lipid samples: Saturated solubility was carried out on each of the freshly prepared semi-solid lipid samples as described above. The results in table 9-8 are based on equilibration of saturated samples over two nights.

## NC(=O)c1ccc(I)c([N+](=O)[O-])c1 [BA, 4-iodo-3-nitrobenzamide]
SELF 27A
  Solubility Enhancement vs. water: 1074
SELF 27A (Gattefosse, semi-solid), after 2 nights
  Mean Conc.: 215000 µg/mL
SELF 27A (Gattefosse, semi-solid), after 2 nights, listed as API
  Mean Conc.: 214730 µg/mL
SELF 27B
  Solubility Enhancement vs. water: 524
SELF 27B (Gattefosse, semi-solid), after 2 nights
  Mean Conc.: 105000 µg/mL
SELF 27D
  Solubility Enhancement vs. water: 699
SELF 27D (Gattefosse, liquid), after 2 nights
  Mean Conc.: 140000 µg/mL
SELF 27E
  Solubility Enhancement vs. water: 675 and 532
SELF 27E (Gattefosse, liquid), after 2 nights
  Mean Conc.: 107000 µg/mL
SELF 27F
  Solubility Enhancement vs. water: 804
SELF 27F (Gattefosse, liquid), after 2 nights
  Mean Conc.: 161000 µg/mL
SELF 27G
  Solubility Enhancement vs. water: 695
SELF 27G (Gattefosse, semi-solid), after 2 nights
  Mean Conc.: 139000 µg/mL
Water
  Mean Conc.: 200 µg/mL
Freshly prepared SELF F1, after 2 nights
  Mean Conc.: 185000 µg/mL
Freshly prepared SELF F1, after 2 nights, listed as API
  Mean Conc.: 184760 µg/mL
Freshly prepared SELF F3, after 2 nights
  Mean Conc.: 87000 µg/mL
Freshly prepared SELF F4, after 2 nights
  Mean Conc.: 42000 µg/mL
Freshly prepared SELF F5, after 2 nights
  Mean Conc.: 75000 µg/mL
Freshly prepared SELF F6, after 2 nights
  Mean Conc.: 76000 µg/mL
Freshly prepared SELF F7, after 2 nights
  Mean Conc.: 135000 µg/mL
water, read-out: Mean Conc.
  solubility: 200 µg/mL (≈ 685 µM)
